Source: patent publication US20060154243A1 (priority 2003, published 2006)

What was measured:
[1] = system: rabbit serum obtained by immunizing with SARS-CoV strain Frankfurt 1; format: binding
[2] = system: sera SARS-green, SARS-yellow, 1a, 1b, 2, 6, 37, 62 and London; format: binding, human
two control sera = format: binding, human
[3] = system: serum 1a (individual 1, early serum); format: binding, human
[4] = system: serum 1b (individual 1, late serum); format: binding, human
serum 2 (individual 2) = format: binding, human
serum 6 (individual 6) = format: binding, human
serum 37 (individual 37) = format: binding, human
serum 62 (individual 62) = format: binding, human
serum London = format: binding, human
serum SARS-yellow = format: binding, human
serum SARS-green = format: binding, human
[5] = system: control serum LUMC (pooled serum of ten healthy hospital workers); format: binding, human
[6] = system: control serum Blood-bank (commercial negative donor pooled serum); format: binding, human

Sequence | Rabbit serum linear peptides [1] | Rabbit serum looped peptides [1] | Recognition of the peptide by sera of individuals infected by SARS-CoV, form recognized [2] | Recognition by at least one of the control sera (two control sera) | Binding of serum 1a to linear peptides of Orf14 of SARS-CoV TOR2 [3] | Binding of serum 1b to linear peptides of Orf14 of SARS-CoV TOR2 [4] | Binding of serum 2 to linear peptides of Orf14 of SARS-CoV TOR2 (serum 2 (individual 2)) | Binding of serum 6 to linear peptides of Orf14 of SARS-CoV TOR2 (serum 6 (individual 6)) | Binding of serum 37 to linear peptides of Orf14 of SARS-CoV TOR2 (serum 37 (individual 37)) | Binding of serum 62 to linear peptides of Orf14 of SARS-CoV TOR2 (serum 62 (individual 62)) | Binding of serum London to linear peptides of Orf14 of SARS-CoV TOR2 (serum London) | Binding of serum SARS-yellow to linear peptides of Orf14 of SARS-CoV TOR2 (serum SARS-yellow) | Binding of serum SARS-green to linear peptides of Orf14 of SARS-CoV TOR2 (serum SARS-green) | Control serum LUMC linear peptides [5] | Control serum LUMC looped peptides [5] | Control Serum Blood-Bank Looped peptides [6] | Control serum Blood-bank linear peptides [6]
CTVVQRCASNKPHVL | 1.7 | 1.0 | recognized in linear and in looped form | recognized by at least one of the control sera |  |  |  |  |  |  |  |  |  |  |  |  | 
ICTVVQRCASNKPHV | 0.3 | 0.4 | recognized in linear and in looped form | recognized by at least one of the control sera |  |  |  |  |  |  |  |  |  |  |  |  | 
NVVPPALHLVDPQIQ | 0.1 | 0.5 | recognized in linear and in looped form | recognized by at least one of the control sera |  |  |  |  |  |  |  |  |  |  |  |  | 
STQREAEAAVKPLLA |  |  | recognized in looped form |  | 0.5 | 0.3 | 0.5 | 0.5 | 0.6 | 0.4 | 0.4 | 0.5 | 0.4 | 0.6 | 1.2 | 1.2 | 0.6
TNVVPPALHLVDPQI | 0.1 | 0.5 | recognized in linear and in looped form | recognized by at least one of the control sera |  |  |  |  |  |  |  |  |  |  |  |  | 
TVVQRCASNKPHVLE | 0.7 | 0.3 | recognized in linear and in looped form | recognized by at least one of the control sera |  |  |  |  |  |  |  |  |  |  |  |  | 
VPPALHLVDPQIQLT | 1.0 | 0.4 | recognized in linear and in looped form | recognized by at least one of the control sera |  |  |  |  |  |  |  |  |  |  |  |  | 
VVPPALHLVDPQIQL | 1.2 | 0.4 | recognized in linear and in looped form | recognized by at least one of the control sera |  |  |  |  |  |  |  |  |  |  |  |  | 
YNFLKEQHCQKASTQ |  |  | recognized in looped form |  | 0.5 | 0.4 | 0.5 | 0.5 | 0.6 | 0.5 | 0.7 | 0.3 | 0.5 | 0.5 | 0.5 | 0.7 | 0.5
